Assay results taken from patent US11851440B2, “Modulators of eukaryotic initiation factor 2B, compositions and methods” (Denali Therapeutics Inc., priority 2017, dated 2023).

Test system: ISR pathway (ATF4 translation)
Test: ATF4 Nano Luciferase reporter integrated stress response (ISR) assay in H4 ATF4-NLuc cells
Conditions: H4 ATF4-NLuc (clone 17) cells; compound 30 minutes, then 50 um sodium arsenite for 6 hours; luminescence readout

Row | SMILES | IC50 [nM]
1 | O=C(NC12CC(c3nnc([C@H]4C[C@@H](OC(F)(F)F)C4)o3)(C1)C2)c1ccc2cc(F)ccc2n1 [Example 189, 6-fluoro-N-[1-[5-[3-cis-(trifluoromethoxy)cyclobutyl]-1,3,4-oxadiazol-2-yl]-3-bicyclo[1.1.1]pentanyl]quinoline-2-carboxamide] | 28.5

Same assay, conditions: Homo sapiens, H4 ATF4-NLuc (clone 17) cells; compound 30 minutes, then 50 um sodium arsenite for 6 hours; luminescence readout

Row | SMILES | IC50 [nM]
2 | O=C(COc1ccc(C(F)(F)F)nc1)NC12CC(n3cnc(-c4ccc(F)c(F)c4)c3)(C1)C2 [Example 161] | 13.4
3 | O=C(COc1ccc(C(F)(F)F)cc1)NC12CC(c3nnc([C@H]4C[C@@H](OC(F)(F)F)C4)o3)(C1)C2 [Example 162, N-[1-[5-[3-cis-(trifluoromethoxy)cyclobutyl]-1,3,4-oxadiazol-2-yl]-3-bicyclo[1.1.1]pentanyl]-2-[4-(trifluoromethyl)phenoxy]acetamide] | 14.9
4 | O=C(COc1ccc(Br)cc1)NC12CC(c3nnc([C@H]4C[C@@H](OC(F)(F)F)C4)o3)(C1)C2 [Example 163] | 8.5
5 | O=C(NC12CC(c3nnc([C@H]4C[C@@H](OC(F)(F)F)C4)o3)(C1)C2)c1ccc2cc(C(F)(F)F)ccc2n1 [Example 166, N-[1-[5-[3-cis-(trifluoromethoxy)cyclobutyl]-1,3,4-oxadiazol-2-yl]-3-bicyclo[1.1.1]pentanyl]-6-(trifluoromethyl)quinoline-2-carboxamide] | 8.1
6 | O=C(NC12CC(c3nnc([C@H]4C[C@@H](OC(F)(F)F)C4)o3)(C1)C2)c1ccc2cc(Cl)cnc2c1 [Example 167, 3-chloro-N-[1-[5-[3-cis-(trifluoromethoxy)cyclobutyl]-1,3,4-oxadiazol-2-yl]-3-bicyclo[1.1.1]pentanyl]quinoline-7-carboxamide] | 43.9
7 | O=C(NC12CC(c3nnc([C@H]4C[C@@H](OC(F)(F)F)C4)o3)(C1)C2)c1ccc2cc(Cl)ccc2n1 [Example 169] | 3.8

Same assay, conditions: Homo sapiens, read-out: Activity (IC50), H4 ATF4-NLuc (clone 17) cells; compound 30 minutes, then 50 um sodium arsenite for 6 hours; luminescence readout

Row | SMILES | IC50 [nM]
8 | O=C(COc1ccc(C(F)(F)F)nc1)NC12CC(n3cnc(-c4ccc(F)c(F)c4)c3)(C1)C2 [Example 161] | < 1000
9 | O=C(COc1ccc(C(F)(F)F)cc1)NC12CC(c3nnc([C@H]4C[C@@H](OC(F)(F)F)C4)o3)(C1)C2 [Example 162, N-[1-[5-[3-cis-(trifluoromethoxy)cyclobutyl]-1,3,4-oxadiazol-2-yl]-3-bicyclo[1.1.1]pentanyl]-2-[4-(trifluoromethyl)phenoxy]acetamide] | < 1000
10 | O=C(COc1ccc(Br)cc1)NC12CC(c3nnc([C@H]4C[C@@H](OC(F)(F)F)C4)o3)(C1)C2 [Example 163] | < 1000
11 | O=C(NC12CC(c3nnc([C@H]4C[C@@H](OC(F)(F)F)C4)o3)(C1)C2)c1ccc(OC(F)(F)F)cn1 [Example 164] | < 1000
12 | O=C(NC12CC(c3nnc(C4CC(OC(F)(F)F)C4)o3)(C1)C2)c1nc2cc(Cl)ccc2o1 (stereo not shown) [Example 165] | < 1000
13 | O=C(NC12CC(c3nnc([C@H]4C[C@@H](OC(F)(F)F)C4)o3)(C1)C2)c1ccc2cc(C(F)(F)F)ccc2n1 [Example 166, N-[1-[5-[3-cis-(trifluoromethoxy)cyclobutyl]-1,3,4-oxadiazol-2-yl]-3-bicyclo[1.1.1]pentanyl]-6-(trifluoromethyl)quinoline-2-carboxamide] | < 1000
14 | O=C(NC12CC(c3nnc([C@H]4C[C@@H](OC(F)(F)F)C4)o3)(C1)C2)c1ccc2cc(Cl)cnc2c1 [Example 167, 3-chloro-N-[1-[5-[3-cis-(trifluoromethoxy)cyclobutyl]-1,3,4-oxadiazol-2-yl]-3-bicyclo[1.1.1]pentanyl]quinoline-7-carboxamide] | < 1000
15 | O=C(NC12CC(c3nnc([C@H]4C[C@@H](OC(F)(F)F)C4)o3)(C1)C2)c1cnc2cc(Cl)ccc2c1 [Example 168] | < 1000
16 | O=C(NC12CC(c3nnc([C@H]4C[C@@H](OC(F)(F)F)C4)o3)(C1)C2)c1ccc2cc(Cl)ccc2n1 [Example 169] | < 1000
17 | O=C(NC12CC(c3nnc([C@H]4C[C@@H](OC(F)(F)F)C4)o3)(C1)C2)c1cn2ccc(F)cc2n1 [Example 170] | < 1000
18 | O=C(NC12CC(c3nnc([C@H]4C[C@@H](OC(F)(F)F)C4)o3)(C1)C2)c1cc2ccc(Cl)cn2n1 [Example 171] | < 1000
19 | O=C(CO[C@H]1C[C@@H](n2nccn2)C1)NC12CC(c3nnc([C@H]4C[C@@H](OC(F)(F)F)C4)o3)(C1)C2 [Example 172] | 1000 to 10000
20 | O=C(COc1cccc(OC(F)(F)F)c1)NC12CC(c3nnc([C@H]4C[C@@H](OC(F)(F)F)C4)o3)(C1)C2 [Example 173] | < 1000
21 | O=C(COc1ccc(C(F)(F)F)nc1)NC12CC(c3nnc([C@H]4C[C@@H](OC(F)(F)F)C4)o3)(C1)C2 [Example 174] | < 1000
22 | O=C(NC12CC(c3nnc([C@H]4C[C@@H](OC(F)(F)F)C4)o3)(C1)C2)c1nc2cc(Cl)ccc2s1 [Example 175] | < 1000
23 | O=C(NC12CC(c3nnc([C@H]4C[C@@H](OC(F)(F)F)C4)o3)(C1)C2)c1nc2cc(Cl)ccn2n1 [Example 176] | < 1000
24 | O=C(NC12CC(c3nnc([C@H]4C[C@@H](OC(F)(F)F)C4)o3)(C1)C2)c1cn2ncc(Cl)cc2n1 [Example 177] | < 1000
25 | O=C(NC12CC(c3nnc([C@H]4C[C@@H](OC(F)(F)F)C4)o3)(C1)C2)c1cn2cc(F)ccc2n1 [Example 180] | 1000 to 10000
26 | O=C(NC12CC(c3nnc([C@H]4C[C@@H](OC(F)(F)F)C4)o3)(C1)C2)c1cc2ccc(Cl)n2cn1 [Example 181] | < 1000

Row | SMILES | IC50 [nM]
27 | O=C(NC12CC(c3nnc([C@H]4C[C@@H](OC(F)(F)F)C4)o3)(C1)C2)c1cc2ccc(Cl)cc2nn1 [Example 183] | < 1000
28 | O=C(NC12CC(c3nnc([C@H]4C[C@@H](OC(F)(F)F)C4)o3)(C1)C2)c1cc2ccc(Br)cc2cn1 [Example 184] | < 1000
29 | O=C(NC12CC(c3nnc([C@H]4C[C@@H](OC(F)(F)F)C4)o3)(C1)C2)c1cn2ccc(C(F)(F)F)cc2n1 [Example 185] | < 1000
30 | O=C(NC12CC(c3nnc([C@H]4C[C@@H](OC(F)(F)F)C4)o3)(C1)C2)c1cn2cc(C(F)(F)F)ccc2n1 [Example 186] | < 1000
31 | O=C(NC12CC(c3nnc([C@H]4C[C@@H](OC(F)(F)F)C4)o3)(C1)C2)c1ccc2ccccc2n1 [Example 187] | < 1000
32 | O=C(NC12CC(c3nnc([C@H]4C[C@@H](OC(F)(F)F)C4)o3)(C1)C2)c1cnc2ccccc2n1 [Example 188] | < 1000
33 | O=C(NC12CC(c3nnc([C@H]4C[C@@H](OC(F)(F)F)C4)o3)(C1)C2)c1ncc2ccccc2n1 [Example 191] | < 1000
34 | O=C(NC12CC(c3nnc([C@H]4C[C@@H](OC(F)(F)F)C4)o3)(C1)C2)c1nc2ccc(Cl)cc2s1 [Example 192] | < 1000
35 | O=C(NC12CC(c3nnc([C@H]4C[C@@H](OC(F)(F)F)C4)o3)(C1)C2)c1nc2cc(Br)ccc2o1 [Example 193] | < 1000
36 | O=C(NC12CC(c3nnc([C@H]4C[C@@H](OC(F)(F)F)C4)o3)(C1)C2)c1cn2cc(F)c(Cl)cc2n1 [Example 194] | < 1000
37 | O=C(NC12CC(c3nnc([C@H]4C[C@@H](OC(F)(F)F)C4)o3)(C1)C2)c1ncc2cc(Cl)ccc2n1 [Example 195] | < 1000
38 | O=C(NC12CC(c3nnc([C@H]4C[C@@H](OC(F)(F)F)C4)o3)(C1)C2)c1ccc2cc(Cl)c(F)cc2n1 [Example 196] | < 1000
39 | O=C(COc1ccc(Cl)c(F)c1)NC12CC(NCCO[C@H]3C[C@@H](n4nccn4)C3)(C1)C2 [Example 197] | < 1000
40 | O=C(CO[C@H]1C[C@@H](OC(F)(F)F)C1)NC12CC(n3cc(-c4ccc(Cl)cc4)oc3=O)(C1)C2 [Example 198] | < 1000
41 | O=C(CO[C@H]1C[C@@H](OC(F)(F)F)C1)NC12CC(c3nnc(-c4ccc(C(F)(F)F)cn4)o3)(C1)C2 [Example 199] | < 1000
42 | O=C(COc1ccc(Cl)c(F)c1)NC12CC(n3cnnn3)(C1)C2 [Example 200] | < 1000
43 | O=C(CO[C@H]1C[C@@H](OC(F)(F)F)C1)NC12CC(c3nc(-c4ccc(Cl)c(F)c4)no3)(C1)C2 [Example 201] | < 1000
44 | O=C(CO[C@H]1C[C@@H](OC(F)(F)F)C1)NC12CC(c3noc(-c4ccc(Cl)cc4)n3)(C1)C2 [Example 203] | < 1000
45 | O=C(CO[C@H]1C[C@@H](OC(F)(F)F)C1)NC12CC(c3nnc(-c4ccc(C(F)(F)F)nc4)o3)(C1)C2 [Example 204] | < 1000

Row | SMILES | IC50 [nM]
46 | O=C(CO[C@H]1C[C@@H](OC(F)(F)F)C1)NC12CC(c3nc(-c4ccc(Cl)cc4)no3)(C1)C2 [Example 205] | < 1000
47 | O=C(COc1ccc(Cl)cc1)NC12CC(N3CC(CC(F)(F)F)CC3=O)(C1)C2 (stereo not shown) [Example 210] | < 1000
48 | CN1C(=O)N(C23CC(NC(=O)COc4ccc(Cl)cc4)(C2)C3)CC1c1ccc(Cl)cc1 (stereo not shown) [Example 212] | < 1000
49 | O=C(COc1ccc(Cl)cc1)NC12CC(N3CC(C4CCC4)CC3=O)(C1)C2 (stereo not shown) [Example 213] | 1000 to 10000
50 | O=C(COc1ccc(Cl)cc1)NC12CC(N3CC(C4CCC4)=CC3=O)(C1)C2 [Example 214] | < 1000
51 | O=C(COc1ccc(Cl)c(F)c1)NC12CC(N3CCN(CC4CCC4)C3=O)(C1)C2 [Example 215] | 1000 to 10000
52 | O=C(COc1ccc(Cl)c(F)c1)NC12CC(N3CC(C4CCC4)OC3=O)(C1)C2 (stereo not shown) [Example 216] | < 1000
53 | O=C(COc1ccc(Cl)c(F)c1)NC12CC(C3CN(CC4CCC4)C(=O)O3)(C1)C2 (stereo not shown) [Example 220] | < 1000
54 | O=C(COc1ccc(Cl)c(F)c1)NC12CC(N3CC(COC(F)(F)F)CC3=O)(C1)C2 (stereo not shown) [Example 221] | < 1000
55 | O=C(COc1ccc(Cl)c(F)c1)NC12CC(N3CCC(COC(F)(F)F)C3=O)(C1)C2 (stereo not shown) [Example 222] | < 1000
56 | O=C(COc1ccc(Cl)c(F)c1)NC12CC(N3CC(COC(F)(F)F)OC3=O)(C1)C2 (stereo not shown) [Example 223] | 1000 to 10000
57 | O=C(COc1ccc(Cl)c(F)c1)NC12CC(N3CC(C4CN(CC(F)(F)F)C4)OC3=O)(C1)C2 (stereo not shown) [Example 224] | < 1000
58 | O=C(NC12CC(c3nnc([C@H]4C[C@@H](OC(F)(F)F)C4)o3)(C1)C2)c1ccn(CCOC(F)(F)F)n1 [Example 225] | < 1000
59 | O=C(CO[C@H]1C[C@@H](OC(F)(F)F)C1)NC12CC(c3ncc(-c4ccc(Cl)c(F)c4)o3)(C1)C2 [Example 227] | < 1000
60 | O=C(CO[C@H]1C[C@@H](OC(F)(F)F)C1)NC12CC(c3cn(-c4ccc(Cl)c(F)c4)cn3)(C1)C2 [Example 228] | < 1000
61 | O=C(NC12CC(n3cnc(-c4ccc(F)c(F)c4)c3)(C1)C2)[C@H]1C[C@@H](OCCOC(F)(F)F)C1 [Example 229] | < 1000
62 | O=C(CO[C@H]1C[C@@H](n2nccn2)C1)NC12CC(n3cnc(-c4ccc(Cl)c(F)c4)c3)(C1)C2 [Example 230] | < 1000
63 | O=C(CO[C@H]1C[C@@H](OC(F)(F)F)C1)NC12CC(n3cnc(-c4cnc(C(F)(F)F)nc4)c3)(C1)C2 [Example 231] | < 1000
64 | O=C(NC12CC(c3nnc(C4CC(OC(F)(F)F)C4)o3)(C1)C2)C(CO)Oc1ccc(Cl)cc1 (stereo not shown) [Example 232] | < 1000

Same assay, conditions: read-out: Activity (IC50); H4 ATF4-NLuc (clone 17) cells; compound 30 minutes, then 50 um sodium arsenite for 6 hours; luminescence readout

Row | SMILES | IC50 [nM]
65 | O=C(NC12CC(c3nnc([C@H]4C[C@@H](OC(F)(F)F)C4)o3)(C1)C2)c1ccc2cc(F)ccc2n1 [Example 189, 6-fluoro-N-[1-[5-[3-cis-(trifluoromethoxy)cyclobutyl]-1,3,4-oxadiazol-2-yl]-3-bicyclo[1.1.1]pentanyl]quinoline-2-carboxamide] | < 1000
66 | O=C(COc1ccc(Cl)c(F)c1)NC12CC(C3CN(C4CCC4)C(=O)O3)(C1)C2 (stereo not shown) [Example 219] | > 10000
67 | O=C(COC[C@H]1C[C@@H](OC(F)(F)F)C1)NC12CC(c3nnc([C@H]4C[C@@H](OC(F)(F)F)C4)o3)(C1)C2 [Example 226] | < 1000
